Among the test systems are EKVX NSCLC; HOP-62 NSCLC; IGROV1 ovarian; MOLT-4 leukemia; OVCAR-3 ovarian; OVCAR-5 ovarian; RXF 393 renal; SF-295 CNS; UACC-257 melanoma; UACC-62 melanoma.
Assay in all cases: NCI-60 cell line screen, 48 h

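How tested: cells in 96-well plates exposed to compound for 48 hours at five concentrations. At the GI50, growth is halved. TGI: concentration producing complete growth inhibition.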

As to `Nc1ccc2c(c1)c(N)nn2C(=O)Nc1ccc(Cc2ccccc2)cc1`, the GI50 with EKVX NSCLC is 14 µM; in the test with HOP-62 NSCLC it was 11.2 µM; in the test with IGROV1 ovarian, 16.4 µM; in the test with MOLT-4 leukemia, 4.48 µM; with OVCAR-3 ovarian, 12.1 µM; in the test with OVCAR-5 ovarian, 22.6 µM. In addition, the GI50 in the test on RXF 393 renal is 21.4 µM; in the test with SF-295 CNS, 3.96 µM; in the test with UACC-257 melanoma, 14.5 µM; with UACC-62 melanoma, 2.9 µM. In addition, the TGI came to 36.7 µM in the test on EKVX NSCLC; 27 µM in the test on HOP-62 NSCLC; 54.1 µM in the test on IGROV1 ovarian; 24.3 µM in the test on MOLT-4 leukemia; 28.3 µM in the test with OVCAR-3 ovarian; 60.5 µM with OVCAR-5 ovarian. For the same molecule, the TGI in the test with RXF 393 renal was found to be 43.9 µM; with SF-295 CNS it was 15.1 µM; with UACC-257 melanoma it was 29.7 µM; in the test on UACC-62 melanoma, 12.6 µM.
Consider `O=C(Cc1ccccc1)NN1C(=O)/C(=C\c2ccc(O)cc2)SC1=Nc1ccccc1`, for which the TGI in the test on EKVX NSCLC, in the test on HOP-62 NSCLC, with IGROV1 ovarian, with MOLT-4 leukemia, in the test on OVCAR-3 ovarian and in the test on OVCAR-5 ovarian was greater than 100 µM throughout. In addition, the TGI in the test with RXF 393 renal, in the test with SF-295 CNS, in the test on UACC-257 melanoma and with UACC-62 melanoma was greater than 100 µM throughout.
On to `Cc1ccc(C(C)C)cc1NC(=O)Nc1ccc([N+](=O)[O-])cc1`, for which the GI50 in the test on EKVX NSCLC was 2.37 µM; in the test with HOP-62 NSCLC, 2.53 µM; in the test with IGROV1 ovarian, 1.38 µM; with MOLT-4 leukemia it was 2.13 µM; in the test on OVCAR-3 ovarian, 1.77 µM; with OVCAR-5 ovarian it was 2.92 µM. For the same molecule, the GI50 with RXF 393 renal was 2.81 µM; with SF-295 CNS, 1.84 µM; in the test with UACC-257 melanoma it was 2.41 µM; in the test on UACC-62 melanoma it was 1.81 µM. For the same molecule, the TGI in the test on EKVX NSCLC was 8.01 µM; in the test with HOP-62 NSCLC, 5.92 µM; in the test with IGROV1 ovarian it was 4.79 µM; with MOLT-4 leukemia it was 4.63 µM; in the test on OVCAR-3 ovarian, 6.28 µM; in the test with OVCAR-5 ovarian, 8.99 µM. Moreover, the TGI in the test on RXF 393 renal amounted to 13.5 µM; with SF-295 CNS, 5.11 µM; in the test on UACC-257 melanoma it was 7.71 µM; in the test on UACC-62 melanoma, 10.2 µM.
Consider `CN(C=O)/C=C/c1cc(O)ccc1O`, for which the TGI is 63.8 µM with EKVX NSCLC; greater than 71.5 µM in the test with HOP-62 NSCLC; greater than 71.4 µM with IGROV1 ovarian; 29.4 µM in the test on MOLT-4 leukemia; 32.5 µM with OVCAR-3 ovarian; 63.9 µM in the test with OVCAR-5 ovarian. In addition, the TGI in the test on RXF 393 renal is 34.1 µM; in the test with SF-295 CNS, 47.7 µM; in the test with UACC-257 melanoma, 52.7 µM; in the test with UACC-62 melanoma, 46.9 µM.
On to `CC1(C)OC2C(COS(N)(=O)=O)SC(n3cnc4cncnc43)C2O1` (stereo not given), for which the GI50 with EKVX NSCLC, with HOP-62 NSCLC, with IGROV1 ovarian, with MOLT-4 leukemia, with OVCAR-3 ovarian and in the test on OVCAR-5 ovarian was greater than 100 µM each time. Besides, the GI50 with RXF 393 renal, in the test with SF-295 CNS, in the test on UACC-257 melanoma and in the test with UACC-62 melanoma was greater than 100 µM throughout. For the same molecule, the TGI with EKVX NSCLC, in the test with HOP-62 NSCLC, with IGROV1 ovarian, in the test on MOLT-4 leukemia, in the test with OVCAR-3 ovarian and in the test on OVCAR-5 ovarian was greater than 100 µM in each case. Besides, the TGI in the test on RXF 393 renal, in the test with SF-295 CNS, with UACC-257 melanoma and in the test with UACC-62 melanoma was greater than 100 µM throughout.
`COC(=O)/C(=N\NC(N)=S)C(C#N)c1ccccc1` (stereo not given): the TGI in the test on EKVX NSCLC, with HOP-62 NSCLC, in the test on IGROV1 ovarian, in the test with MOLT-4 leukemia, in the test with OVCAR-3 ovarian and in the test on OVCAR-5 ovarian was greater than 100 µM in each case. For the same molecule, the TGI with RXF 393 renal, in the test on SF-295 CNS, in the test with UACC-257 melanoma and with UACC-62 melanoma was greater than 100 µM throughout.
For the molecule `COc1cccc(NC(=O)C(=O)C(C(C)=O)c2nc3ccc(Cl)cc3[nH]c2=O)c1` (stereo not given), the TGI in the test with EKVX NSCLC, with HOP-62 NSCLC, in the test on IGROV1 ovarian, with MOLT-4 leukemia, in the test with OVCAR-3 ovarian and in the test with OVCAR-5 ovarian was greater than 100 µM in each case. Moreover, the TGI in the test on RXF 393 renal, with SF-295 CNS, in the test with UACC-257 melanoma and with UACC-62 melanoma was greater than 100 µM in each case.
On to `CC/C=C\C/C=C\C[C@H](O)C/C=C1/C(=O)C=C[C@@H]1C/C=C\CCCC(=O)OC`, for which the GI50 in the test on EKVX NSCLC is 3.15 µM; with HOP-62 NSCLC it was 1.65 µM; in the test with IGROV1 ovarian, 2.86 µM; with MOLT-4 leukemia, 1.2 µM; with OVCAR-3 ovarian, 0.799 µM; in the test with OVCAR-5 ovarian, 2.75 µM. Moreover, the GI50 with RXF 393 renal is 1.97 µM; in the test on SF-295 CNS it was 2.3 µM; in the test with UACC-257 melanoma, 1.83 µM; in the test on UACC-62 melanoma, 0.714 µM. In addition, the TGI was 10.9 µM with EKVX NSCLC; 4.1 µM in the test with HOP-62 NSCLC; 7.86 µM with IGROV1 ovarian; 4.41 µM in the test on MOLT-4 leukemia; 2.2 µM in the test on OVCAR-3 ovarian; 6.94 µM in the test with OVCAR-5 ovarian. Further, the TGI amounted to 3.61 µM in the test with RXF 393 renal, 5.56 µM in the test on SF-295 CNS, 4.32 µM in the test on UACC-257 melanoma and 2.85 µM in the test on UACC-62 melanoma.

For the origin of these results see PubChem BioAssay (NCI).
